Test results from PubChem BioAssay (NCI).
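Following 48 hours of exposure in 96-well plates, responses at five concentrations were used to interpolate endpoints linearly. GI50 = concentration required for 50% inhibition of growth. TGI denotes the concentration required for complete inhibition of growth.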 Where a SMILES comes first, the peptide text is derived from it. Bridges are numbered along the chain shown (N, C = ends). Roman numbers before positions name the chains, in order. [ ]: non-standard residue; d: D form. The star is where a group is joined. Heptadecanoyl = CCCCCCCCCCCCCCCCC(=O)*; Phg = N[CH](C(=O)O)c1ccccc1

What was measured:
Test in all cases: DTP human tumour cell line panel, 48 h
NCI-H226 lung = test system: NCI-H226 lung
MDA-MB-231 breast = test system: MDA-MB-231 breast
SF-268 CNS = test system: SF-268 CNS
SR leukemia = test system: SR leukemia
EKVX NSCLC = test system: EKVX NSCLC
HCC-2998 colon = test system: HCC-2998 colon
UO-31 renal = test system: UO-31 renal
OVCAR-4 ovarian = test system: OVCAR-4 ovarian
NCI/ADR-RES ovarian = test system: NCI/ADR-RES ovarian
OVCAR-5 ovarian = test system: OVCAR-5 ovarian

Compound	TGI (NCI-H226 lung)	TGI (MDA-MB-231 breast)	TGI (SF-268 CNS)	TGI (SR leukemia)	TGI (EKVX NSCLC)	TGI (HCC-2998 colon)	TGI (UO-31 renal)	TGI (OVCAR-4 ovarian)	TGI (NCI/ADR-RES ovarian)	TGI (OVCAR-5 ovarian)	GI50 (NCI-H226 lung)	GI50 (MDA-MB-231 breast)	GI50 (SF-268 CNS)	GI50 (OVCAR-4 ovarian)	GI50 (NCI/ADR-RES ovarian)	GI50 (EKVX NSCLC)	GI50 (HCC-2998 colon)	GI50 (OVCAR-5 ovarian)	GI50 (UO-31 renal)
COc1cc(C2SC(N)=Nc3c2c(C)nn3C(=O)Cc2ccccc2)ccc1O (configuration not stated)	> 100 µM	> 100 µM	> 100 µM	> 100 µM	> 100 µM	> 100 µM	> 100 µM	–	–	–	–	–	–	–	–	–	–	–	–
O=C(Nc1ccc(F)cc1)c1cc2ccc(O)cc2oc1=Nc1cccc(F)c1	–	–	> 100 µM	> 100 µM	64.4 µM	> 100 µM	–	> 100 µM	> 100 µM	> 100 µM	–	–	–	–	–	–	–	–	–
Cc1ccc(C(=O)Nc2ccc(CP(=O)(O)O)cc2)cc1NC(=O)Nc1cc(C(=O)Nc2ccc(CP(=O)(O)O)cc2)ccc1C	> 100 µM	> 100 µM	> 100 µM	–	> 100 µM	> 100 µM	> 100 µM	> 100 µM	> 100 µM	> 100 µM	–	–	–	–	–	–	–	–	–
Clc1ccc(N=Cc2cc3cc(Br)ccc3nc2Cl)cc1	> 50 µM	–	> 50 µM	42.2 µM	> 50 µM	> 50 µM	> 50 µM	24.2 µM	> 50 µM	> 50 µM	–	–	–	–	–	–	–	–	–
CCC1CCN=C(Cn2cc(C)c(=O)[nH]c2=O)N1 (configuration not stated)	> 100 µM	> 100 µM	> 100 µM	–	> 100 µM	> 100 µM	> 100 µM	–	> 100 µM	> 100 µM	–	–	–	–	–	–	–	–	–
Cc1c(C)c(C)c(CSC(=N)N)c(C)c1C	27.8 µM	27.1 µM	36.2 µM	–	28 µM	27.8 µM	20.2 µM	33.2 µM	30.6 µM	29.8 µM	–	–	–	–	–	–	–	–	–
N=C(N)c1ccc(-c2ccc(-c3ccc(C(=N)N)cc3)o2)cc1	> 100 µM	> 100 µM	> 100 µM	> 100 µM	91.6 µM	–	68.1 µM	> 100 µM	> 100 µM	99.2 µM	–	–	–	–	–	–	–	–	–
Clc1ccc(CSCc2ccc(Cl)cc2Cl)c(Cl)c1	> 100 µM	> 100 µM	> 100 µM	–	> 100 µM	98.2 µM	> 100 µM	> 100 µM	> 100 µM	> 100 µM	–	–	–	–	–	–	–	–	–
CCNC(=O)Cc1nc2c(=O)[nH]cnc2n1C1OC(CO)C(O)C1O (configuration not stated)	> 100 µM	> 100 µM	> 100 µM	–	> 100 µM	> 100 µM	> 100 µM	> 100 µM	> 100 µM	> 100 µM	–	–	–	–	–	–	–	–	–
N#CC(C#N)=Cc1ccc(-c2ccc(-c3nc4ccccc4s3)cc2)s1	36.8 µM	36.9 µM	> 100 µM	–	> 100 µM	65.8 µM	30.2 µM	> 100 µM	22.7 µM	30.5 µM	14.7 µM	16.1 µM	25.5 µM	51.9 µM	5.74 µM	29.6 µM	27.9 µM	14 µM	13.9 µM
CCC(C)(C)c1ccc(Oc2cccc(C(=O)O)c2)cc1	> 100 µM	> 100 µM	> 100 µM	–	> 100 µM	> 100 µM	> 100 µM	> 100 µM	> 100 µM	> 100 µM	–	–	–	–	–	–	–	–	–
CC1CC(=O)NC2CC1C2(C)C (configuration not stated)	> 100 µM	> 100 µM	> 100 µM	> 100 µM	–	> 100 µM	> 100 µM	> 100 µM	–	> 100 µM	–	–	–	–	–	–	–	–	–
CCOC(=O)c1cc(C2(OC)CCN(Cc3ccccc3)C2=O)c(-c2cc(C)no2)[nH]1 (configuration not stated)	–	> 100 µM	> 100 µM	–	> 100 µM	> 100 µM	> 100 µM	> 100 µM	> 100 µM	> 100 µM	–	–	–	–	–	–	–	–	–
COc1ccc(C2S/C(=C\c3cccc([N+](=O)[O-])c3)C(=O)N2NC(=O)Cc2ccccc2)cc1 (configuration not stated)	> 100 µM	–	> 100 µM	> 100 µM	–	–	> 100 µM	> 100 µM	–	> 100 µM	–	–	–	–	–	–	–	–	–
COc1ccc(N2C(=O)CC(c3c[nH]c4ccccc34)C2=O)cc1 (configuration not stated)	> 100 µM	> 100 µM	> 100 µM	> 100 µM	> 100 µM	> 100 µM	> 100 µM	–	> 100 µM	> 100 µM	–	–	–	–	–	–	–	–	–
CC[C@@H]1C[C@@H](O)[C@@H]2[C@H](O)[C@H](O)CN2C1	> 100 µM	> 100 µM	> 100 µM	–	> 100 µM	> 100 µM	> 100 µM	> 100 µM	> 100 µM	> 100 µM	–	–	–	–	–	–	–	–	–
CCCCCCCCCCCCCCCCC(=O)N1CCCC1C(=O)NCC(=O)NC(C(=O)N1CCCC1C(=O)NC(CO)C(=O)NC(Cc1ccc(O)cc1)C(=O)NC(CCCCNC(=O)C1CCCN1C(=O)C(CCCCN)NC(=O)C(CCCCN)NC(=O)C(CCCCN)NC(=O)C(CCCNC(=N)N)NC(=O)C(CCCCN)NC(=O)C(N)C(C)C)C(=O)NC(CC(C)C)C(=O)NC(CCCNC(=N)N)C(=O)N1CCCC1C(=O)NCC(N)=O)c1ccccc1 (configuration not stated) (I: Heptadecanoyl-PG[Phg]PSYKLRPG-NH2 / II: H-VKRKKKP; amide I:7-II:C; configuration not given here)	49.3 µM	36.1 µM	> 100 µM	–	84.4 µM	29.9 µM	> 100 µM	> 100 µM	84 µM	> 100 µM	22.1 µM	17.7 µM	15 µM	46.9 µM	26.2 µM	27.7 µM	4.36 µM	34.3 µM	32.4 µM
C=CCn1c(=S)sc2c(=O)[nH]cnc21	–	–	> 100 µM	> 100 µM	> 100 µM	> 100 µM	> 100 µM	> 100 µM	–	> 100 µM	–	–	–	–	–	–	–	–	–
C(=N/Nc1ccccn1)/c1cccnc1	> 100 µM	> 100 µM	> 100 µM	–	> 100 µM	> 100 µM	> 100 µM	> 100 µM	> 100 µM	> 100 µM	–	–	–	–	–	–	–	–	–
